Patent US11319324B2, “Pyrazolo-pyrrolo-pyrimidine-dione derivatives as P2X3 inhibitors” (Bayer Aktiengesellschaft, priority 2017, dated 2022)

Assays:
Assay type in all cases: cell-based
[1] = target: T1, human P2X2/3 receptors (Homo sapiens, UniProt P56373+Q9UBL9); assay: Intracellular calcium measurement, antagonist activity at human P2X2/3 receptors (hP2X23 1321N1), Fluo8; details: for IC50: column 4); 1321N1 cells, human P2X2/3, Fluo8, agonist ATP at EC50; read-out: 4) hP2X2/3 IC50 [nM] (1321N1); for hP2X23/hP2X3* Selectivity (1321N1): ratio of column 4) hP2X2/3 to column 3) hP2X3, 1321N1
T1 construct: expressed in transfected cells; host or cells: human astrocytoma 1321N1 (1312N1 [sic])
T1 sequence (P56373 1-397): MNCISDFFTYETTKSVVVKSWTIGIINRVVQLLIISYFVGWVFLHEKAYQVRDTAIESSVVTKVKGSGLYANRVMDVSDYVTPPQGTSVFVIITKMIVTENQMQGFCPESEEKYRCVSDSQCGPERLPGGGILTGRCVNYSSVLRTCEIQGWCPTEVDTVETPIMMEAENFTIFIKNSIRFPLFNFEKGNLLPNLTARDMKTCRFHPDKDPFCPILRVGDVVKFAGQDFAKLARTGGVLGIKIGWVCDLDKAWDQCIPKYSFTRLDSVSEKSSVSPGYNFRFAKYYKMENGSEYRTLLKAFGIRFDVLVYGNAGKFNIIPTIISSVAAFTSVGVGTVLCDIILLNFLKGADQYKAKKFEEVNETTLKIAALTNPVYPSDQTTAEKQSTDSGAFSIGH
T1 sequence (Q9UBL9 1-471): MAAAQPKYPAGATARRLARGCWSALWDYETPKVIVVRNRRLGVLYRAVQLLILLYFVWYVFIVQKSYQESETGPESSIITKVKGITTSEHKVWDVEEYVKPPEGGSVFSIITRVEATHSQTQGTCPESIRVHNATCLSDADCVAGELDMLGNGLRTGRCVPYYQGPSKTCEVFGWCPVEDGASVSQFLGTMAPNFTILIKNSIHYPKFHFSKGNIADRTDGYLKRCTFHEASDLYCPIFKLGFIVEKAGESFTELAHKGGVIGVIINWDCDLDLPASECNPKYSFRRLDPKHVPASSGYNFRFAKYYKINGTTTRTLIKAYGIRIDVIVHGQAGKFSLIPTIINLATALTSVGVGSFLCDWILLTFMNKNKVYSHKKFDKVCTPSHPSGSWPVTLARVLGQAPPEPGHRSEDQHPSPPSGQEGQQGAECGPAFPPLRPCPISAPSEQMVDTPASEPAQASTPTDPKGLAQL
Method in brief: (§1)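 Antagonism was assessed by decrease of the Fluo8 calcium signal after ATP challenge, with ATP dosed at the EC50 of whichever receptor was tested. Stable 1321N1 astrocytoma lines expressed either human P2X3 or both P2X2 and P2X3, and were dye-loaded 60 min before a 10 min compound incubation.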

[2] = target: T2, human P2X3 receptor (Homo sapiens, UniProt P56373); assay: Intracellular calcium measurement to assess antagonist activity at human P2X3 receptors (hP2X3 CHO), photina luminescence; design: expressed in transfected cells; host or cells: Chinese hamster ovary (CHO) cells; details: column 2), CHO cells, agonist α,β-methylene-ATP at EC50
T2 sequence (P56373 1-397): T1 sequence (P56373 1-397)
Method in brief: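 Antagonism read as lowered photina luminescence after agonist stimulation in recombinant hP2X3/photina CHO cells. Cells seeded one day earlier (30 °C) and reconstituted with 5 μg/ml coelenterazine in 2 mM Ca-tyrode buffer for 3 h at 37 °C before measurement.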

[3] = target: T2, human P2X3 receptor; assay: Intracellular calcium measurement to assess antagonist activity at human P2X3 receptors (hP2X3 FLIPR); design: expressed in transfected cells; host or cells: human astrocytoma 1321N1 (1312N1 [sic]); details: head prints (1321N1); read-out: 1) hP2X3 IC50 [nM] (1321N1)
Procedure: 1) Intracellular Calcium Measurement to Assess Antagonist Activity at Human P2X3 Receptors (hP2X3 FLIPR)
A fluorescent imaging plate reader (FLEX/FLIPR station; Molecular Devices) was used to monitor intracellular calcium levels using the calcium-chelating dye Fluo-4 (Molecular Probes). The excitation and emission wavelengths used to monitor fluorescence were 470-495 nm and 515-575 nm, respectively. The human astrocytoma […] cells expressing purinergic receptors P2X3 (human) were plated at a density of 15,000 cells/well in collagen—coated 384-well plates approximately 20 hours before beginning the assay. […] The dye supernatant was removed and replaced with 45 μl probenecid buffer (Hank's balanced salt solution, 20 mM HEPES, 0.5 mM CaCl2, 0.5 mM MgCl2, 0.1% BSA, 5 mM probenecid, 10 mM D-glucose monohydrate, pH=7.4). The test compounds were added in a volume of 5 μl and allowed to incubate for 30 min at 37° C. The final assay DMSO concentration is 1%. […] The fluorescence was measured for an interval of 90 sec at 2 sec intervals and analyzed based on the increase in peak relative fluorescence units (RFU) compared to the basal fluorescence. Peak fluorescence was used to determine the response to agonist obtained at each concentration of test compound by the following equation: Response=100*(RFU(test compound)−RFU(control))/(RFU(DMSO)−RFU(control))
The Examples were tested in triplicates per plate and mean values were plotted in Excel XLFit to determine IC50 values at the human P2X3 and human P2X2/3 receptors, percentage of maximal inhibition and the Hill coefficients.

[4] = target: T2, human P2X3 receptor; assay: Intracellular calcium measurement, antagonist activity at human P2X3 receptors (hP2X3 1321N1), Fluo8; design: expressed in transfected cells; host or cells: human astrocytoma 1321N1 (1312N1 [sic]); details: column 3); 1321N1 cells, human P2X3, Fluo8, agonist ATP at EC50
Method in brief: as §1

Structure (SMILES) | IC50 [1] [nM] | hP2X23/hP2X3* Selectivity (1321N1) [1] | IC50 [2] [nM] | IC50 [3] [nM] | IC50 [4] [nM]
CC(C)N1Cc2c(n(CC(=O)Nc3ccc(Cl)cn3)c3cc(C(C)(C)C)nn3c2=O)C1=O [Example 3] | 2850 | 78 | 147 | 32 | 37
COC[C@H](C)N1Cc2c(n(CC(=O)Nc3ccc(F)cn3)c3cc(C(F)(F)F)nn3c2=O)C1=O [Example 37] | > 32000 | >160 | 135 | 82 | 200
COCC(C)N1Cc2c(n(CC(=O)Nc3ccc(F)cn3)c3cc(Br)nn3c2=O)C1=O (centres unmarked) [Example 36, 2-[2-bromo-6-(1-methoxypropan-2-yl)-5,8-dioxo-5,6,7,8-tetrahydro-4H-pyrazolo[1,5-a]pyrrolo[3,4-d]pyrimidin-4-yl]-N-(5-fluoropyridin-2-yl)acetamide] | > 20900 | >368 | 44 | 34 | 57
CC(C)[C@H](C)N1Cc2c(n(CC(=O)Nc3ccc(F)cn3)c3cc(C(C)(C)C)nn3c2=O)C1=O [Example 10] | > 32000 | >101 | 38 | 24 | 317
CC(C)N1Cc2c(n(CC(=O)Nc3ccc(F)cn3)c3cc(C(F)(F)F)nn3c2=O)C1=O [Example 31] | > 32000 | >116 | 120 | 130 | 277
CC(C)(C)c1cc2n(CC(=O)Nc3ccc(F)cn3)c3c(c(=O)n2n1)CN(C1CCOCC1)C3=O [Example 33] | > 21500 | >72 | 165 | 276 | 297
CC[C@H](C)N1Cc2c(n(CC(=O)Nc3ccc(C)cn3)c3cc(C(F)(F)F)nn3c2=O)C1=O [Example 21] | 12400 | 53 | 180 | 164 | 233
CC[C@H](C)N1Cc2c(n(CC(=O)Nc3ccc(F)cn3)c3cc(C(F)(F)F)nn3c2=O)C1=O [Example 20] | > 22000 | >41 | 375 | 312 | 537
CC(C)c1cc2n(CC(=O)Nc3ccc(F)cn3)c3c(c(=O)n2n1)CN(C(C)C)C3=O [Example 7] | 8000 | 167 | 71 | 28 | 48
CC(C)(C)c1cc2n(CC(=O)Nc3ccc(F)cn3)c3c(c(=O)n2n1)CN(CCOCc1ccccc1)C3=O [Example 34, 2-{6-[2-(Benzyloxy)ethyl]-2-tert-butyl-5,8-dioxo-5,6,7,8-tetrahydro-4H-pyrazolo[1,5-a]pyrrolo[3,4-d]pyrimidin-4-yl}-N-(5-fluoropyridin-2-yl)acetamide] | – | – | – | 4 | –

Further lines, results first:

IC50 [1] [nM] | hP2X23/hP2X3* Selectivity (1321N1) [1] | IC50 [2] [nM] | IC50 [3] [nM] | IC50 [4] [nM] | Structure (SMILES)
6500 | 213 | 20 | 19 | 31 | COC[C@@H](C)N1Cc2c(n(CC(=O)Nc3ccc(F)cn3)c3cc(C(C)(C)C)nn3c2=O)C1=O [Example 43]
14000 | 385 | 59 | 28 | 36 | CCc1cc2n(CC(=O)Nc3ccc(F)cn3)c3c(c(=O)n2n1)CN([C@@H](C)COC)C3=O [Example 46]
– | – | 1100 | 1220 | – | Cc1ccc(NC(=O)Cn2c3c(c(=O)n4nc(C(C)(C)C)cc24)CN(C2COC2)C3=O)nc1 [Example 47]
– | – | – | 125 | – | COCC(C)N1Cc2c(n(CC(=O)Nc3ccc(F)cn3)c3cc(CO)nn3c2=O)C1=O (racemic) [Example 141, N-(5-fluoropyridin-2-yl)-2-{2-(hydroxymethyl)-6-[(±)-1-methoxypropan-2-yl]-5,8-dioxo-5,6,7,8-tetrahydro-4H-pyrazolo[1,5-a]pyrrolo[3,4-d]pyrimidin-4-yl}acetamide]
– | – | – | 35 | – | Cc1cc2n(CC(=O)Nc3ccc(Cl)cn3)c3c(c(=O)n2n1)CN(C(C)C)C3=O [Example 42]
8200 | 248 | 22 | – | 33 | CC(C)N1Cc2c(n(CC(=O)Nc3ccc(F)cn3)c3cc(NC(=O)c4cnn[nH]4)nn3c2=O)C1=O [Example 286]
1590 | 30 | 42 | – | 53 | CCc1cc2n(CC(=O)Nc3ccc(F)cn3)c3c(c(=O)n2n1)CN(C[C@H]1CN(C(C)C)CCO1)C3=O [Example 256, 2-(2-ethyl-5,8-dioxo-6-{[(2R)-4-(propan-2-yl)morpholin-2-yl]methyl}-5,6,7,8-tetrahydro-4H-pyrazolo[1,5-a]pyrrolo[3,4-d]pyrimidin-4-yl)-N-(5-fluoropyridin-2-yl)acetamide]
11500 | 397 | 30 | – | 29 | COC[C@H](C)N1Cc2c(n(CC(=O)Nc3ccc(F)cn3)c3cc(N(C)C)nn3c2=O)C1=O [Example 177]
4850 | 243 | 52 | – | 20 | COCCN1Cc2c(n(CC(=O)Nc3ccc(F)cn3)c3cc(C4CC4)nn3c2=O)C1=O [Example 100]
5900 | 361 | 10 | – | 16 | COC[C@H](C)N1Cc2c(n(CC(=O)Nc3ccc(F)cn3)c3cc(C(=O)NCC4CC4)nn3c2=O)C1=O [Example 190]
13000 | 90 | 83 | – | 145 | Cc1ccc(NC(=O)Cn2c3c(c(=O)n4nc(C5CCOCC5)cc24)CN(C(C)C)C3=O)nc1 [Example 59]
5000 | 294 | 18 | – | 17 | CCc1cc2n(CC(=O)Nc3ccc(F)cn3)c3c(c(=O)n2n1)CN(Cc1cccnc1)C3=O [Example 107]
2200 | 367 | 16 | – | 6 | Cc1ccc(-c2cc3n(CC(=O)Nc4ccc(F)cn4)c4c(c(=O)n3n2)CN([C@@H]2CCOC2)C4=O)nc1 [Example 160, N-(5-fluoropyridin-2-yl)-2-[2-(5-methylpyridin-2-yl)-5,8-dioxo-6-[(3R)-oxolan-3-yl]-5,6,7,8-tetrahydro-4H-pyrazolo[1,5-a]pyrrolo[3,4-d]pyrimidin-4-yl]acetamide]
